Read-outs that look alike come from different tables or passages of the source. Where a SMILES comes first, the peptide text is derived from it. Side-chain parts run from the residue outwards. [ ]: non-standard residue; d: D form. The star is where a group is joined. Nicotinoyl = O=C(c1cccnc1)*; Nle = CCCC[C@H](N)C(=O)O; Cbz = O=C(OCc1ccccc1)*
Key:
AT4 receptor [1] = test: Competition for [125I]Ang IV binding on prefrontal cortical brain sections (in vitro receptor autoradiography); set-up: species or system Macaca fascicularis; details: for IC50: monkey prefrontal cortical sections, read-out: IC50 for competing for [125I]Ang IV binding; for Competition for [125I]Ang IV binding: even at concentrations of 10 mM
[2] = system: embryonic chicken sympathetic neurons
AT4 receptor sites = test: Cross-displacement of [125I]LVV-haemorphin-7 and [125I]Ang IV binding on sheep hindbrain sections
Experimental: Sheep hindbrain sections were used to compare the distribution of ^125I-LVV-haemorphin-7 binding and AT4 receptor sites. Sections at 10 μm thickness were equilibrated to 22° C. (30 min), and then preincubated for 30 min in an isotonic buffer containing 50 mM Tris, 150 mM sodium chloride, 5 mM EDTA, 100 μM phenylmethylsulfonyl fluoride, 20 μM bestatin and 0.1% bovine serum albumin, pH 7.4, before a further 2 h incubation in the same buffer containing 2.84 μCi of [^125I]LVV-haemorphin-7 or [125I]Ang IV (approximately 140 pM). The binding of the radioligands was cross-displaced with either 1 μM unlabelled LVV-haemorphin-7 or Ang IV. After incubation, the sections were given three 2 min washes in buffer at 4° C., and exposed to X-ray film for 14 to 28 d.

AT4 receptor [3] = details: literature; mediated via the AT4 receptor; cited from earlier work
[4] = target: T1, embryonic chicken Ang IV binding site (AT4 receptor) (Gallus gallus, UniProt F1NNE7); test: Competition for [125I]Ang IV binding to E13 chicken chorioallantoic membranes; details: for Concentration at which only 50% of the [125I]Ang IV sites were competed for: E13 chicken CAM, only 50% of the sites
T1 sequence (F1NNE7 1-1024): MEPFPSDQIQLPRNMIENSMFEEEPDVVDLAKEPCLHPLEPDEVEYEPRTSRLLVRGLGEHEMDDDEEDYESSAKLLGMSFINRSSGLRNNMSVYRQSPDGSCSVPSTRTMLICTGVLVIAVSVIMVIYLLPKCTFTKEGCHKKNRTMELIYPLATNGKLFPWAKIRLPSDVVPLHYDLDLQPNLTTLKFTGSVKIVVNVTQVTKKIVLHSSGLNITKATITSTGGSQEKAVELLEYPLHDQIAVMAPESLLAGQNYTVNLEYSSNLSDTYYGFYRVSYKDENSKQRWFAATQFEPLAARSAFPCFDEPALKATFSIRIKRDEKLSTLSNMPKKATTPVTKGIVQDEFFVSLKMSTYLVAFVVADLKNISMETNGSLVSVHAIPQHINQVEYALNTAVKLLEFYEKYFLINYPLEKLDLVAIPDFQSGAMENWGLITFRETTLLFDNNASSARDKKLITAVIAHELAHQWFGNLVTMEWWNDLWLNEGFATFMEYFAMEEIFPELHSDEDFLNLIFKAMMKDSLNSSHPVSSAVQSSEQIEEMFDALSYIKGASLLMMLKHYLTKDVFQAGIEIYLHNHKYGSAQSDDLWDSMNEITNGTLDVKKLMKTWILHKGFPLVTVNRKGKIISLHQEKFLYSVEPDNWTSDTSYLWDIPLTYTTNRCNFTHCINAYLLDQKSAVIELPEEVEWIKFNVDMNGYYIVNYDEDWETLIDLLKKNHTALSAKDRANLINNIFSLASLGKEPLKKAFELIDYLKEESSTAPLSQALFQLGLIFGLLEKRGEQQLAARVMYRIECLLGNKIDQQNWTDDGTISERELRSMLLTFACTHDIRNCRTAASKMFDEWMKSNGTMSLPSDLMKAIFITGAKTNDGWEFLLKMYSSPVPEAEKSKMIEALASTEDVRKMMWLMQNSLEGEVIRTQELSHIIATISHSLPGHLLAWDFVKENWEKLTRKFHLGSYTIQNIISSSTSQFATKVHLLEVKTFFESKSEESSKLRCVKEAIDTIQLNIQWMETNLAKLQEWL

AT4 receptor [5] = target: T2, AT4 receptor (Ovis aries, UniProt A0ACI6PQ17); test: Competition for [125I]LVV-haemorphin-7 binding to sheep cerebellar cortical membranes; details: read-out: IC50 for competing for 125I-LVV-haemorphin-7 binding
AT4 receptor [6] = target: T2, AT4 receptor; test: Competition for [125I]Ang IV binding to sheep cerebellar cortical membranes
[7] = target: Ang IV binding site (AT4 receptor) (Homo sapiens, UniProt Q9UIQ6); details: literature; cited from earlier work
[8] = system: scopolamine-induced amnesia; details: rat, in vivo
[9] = system: scopolamine-induced amnesia
[10] = 10^−8 M Ang II, test substance 1 μM
[11] = 10^−8 M Ang IV, test substance 1 μM

Sequence of Ang IV binding site (AT4 receptor) (Q9UIQ6 whole entry): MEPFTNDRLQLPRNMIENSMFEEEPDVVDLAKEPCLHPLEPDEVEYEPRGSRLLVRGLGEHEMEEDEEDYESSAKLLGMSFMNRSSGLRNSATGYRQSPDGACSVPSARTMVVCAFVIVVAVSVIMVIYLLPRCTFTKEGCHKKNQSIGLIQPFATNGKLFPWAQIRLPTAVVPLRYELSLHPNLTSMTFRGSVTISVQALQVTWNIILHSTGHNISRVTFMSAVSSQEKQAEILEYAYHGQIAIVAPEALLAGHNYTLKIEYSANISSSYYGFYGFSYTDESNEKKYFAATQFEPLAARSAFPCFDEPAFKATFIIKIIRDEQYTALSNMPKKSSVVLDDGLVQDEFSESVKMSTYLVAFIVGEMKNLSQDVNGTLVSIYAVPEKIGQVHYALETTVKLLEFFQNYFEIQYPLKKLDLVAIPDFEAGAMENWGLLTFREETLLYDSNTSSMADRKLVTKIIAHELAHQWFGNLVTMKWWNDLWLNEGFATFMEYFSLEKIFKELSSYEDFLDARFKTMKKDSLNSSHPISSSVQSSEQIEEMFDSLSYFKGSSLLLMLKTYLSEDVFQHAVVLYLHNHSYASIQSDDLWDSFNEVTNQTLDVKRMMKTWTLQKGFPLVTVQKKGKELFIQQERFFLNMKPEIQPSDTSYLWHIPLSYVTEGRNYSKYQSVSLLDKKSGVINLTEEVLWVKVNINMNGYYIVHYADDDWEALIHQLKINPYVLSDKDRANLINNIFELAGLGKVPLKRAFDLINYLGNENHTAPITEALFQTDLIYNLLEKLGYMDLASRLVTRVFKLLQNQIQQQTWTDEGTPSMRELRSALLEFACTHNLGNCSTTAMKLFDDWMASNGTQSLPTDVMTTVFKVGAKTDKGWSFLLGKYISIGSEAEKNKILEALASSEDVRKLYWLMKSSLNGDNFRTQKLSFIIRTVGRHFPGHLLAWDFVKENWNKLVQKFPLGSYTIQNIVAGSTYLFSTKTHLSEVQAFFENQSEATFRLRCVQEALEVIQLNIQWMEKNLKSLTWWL
T2 sequence (A0ACI6PQ17 1-1050): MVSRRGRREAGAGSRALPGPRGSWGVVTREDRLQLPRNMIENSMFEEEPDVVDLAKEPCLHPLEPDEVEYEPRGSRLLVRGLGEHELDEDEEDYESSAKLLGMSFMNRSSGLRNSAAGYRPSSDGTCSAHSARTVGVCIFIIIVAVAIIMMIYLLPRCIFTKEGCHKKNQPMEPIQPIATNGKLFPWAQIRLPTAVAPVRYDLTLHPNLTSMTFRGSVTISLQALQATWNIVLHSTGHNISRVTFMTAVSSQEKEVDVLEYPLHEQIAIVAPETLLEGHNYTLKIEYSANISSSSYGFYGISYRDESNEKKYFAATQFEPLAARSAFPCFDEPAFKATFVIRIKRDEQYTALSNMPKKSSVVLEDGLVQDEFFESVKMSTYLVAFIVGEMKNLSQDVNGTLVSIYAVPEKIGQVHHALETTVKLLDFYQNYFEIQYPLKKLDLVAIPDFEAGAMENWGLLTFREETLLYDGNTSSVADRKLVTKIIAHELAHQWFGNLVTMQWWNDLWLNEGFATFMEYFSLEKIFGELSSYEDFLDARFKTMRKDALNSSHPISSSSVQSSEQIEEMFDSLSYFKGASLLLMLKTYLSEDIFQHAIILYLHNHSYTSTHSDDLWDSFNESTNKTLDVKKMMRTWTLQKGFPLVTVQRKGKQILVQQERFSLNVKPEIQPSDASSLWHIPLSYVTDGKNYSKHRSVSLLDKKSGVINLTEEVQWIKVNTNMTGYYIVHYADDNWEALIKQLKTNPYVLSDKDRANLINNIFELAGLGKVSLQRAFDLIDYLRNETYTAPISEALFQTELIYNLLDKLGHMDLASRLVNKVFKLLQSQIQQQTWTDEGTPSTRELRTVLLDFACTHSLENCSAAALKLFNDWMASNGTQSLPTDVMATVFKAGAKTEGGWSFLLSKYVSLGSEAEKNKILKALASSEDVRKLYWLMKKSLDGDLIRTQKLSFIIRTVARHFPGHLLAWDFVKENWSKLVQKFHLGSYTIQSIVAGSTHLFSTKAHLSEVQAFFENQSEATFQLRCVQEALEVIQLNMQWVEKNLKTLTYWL

Compound: CC[C@H](C)[C@H](NC(=O)[C@H](Cc1ccc(O)cc1)NC(=O)[C@@H](NC(=O)[C@@H](N)CCCNC(=N)N)C(C)C)C(=O)N[C@@H](Cc1c[nH]cn1)C(=O)N1CCC[C@H]1C(=O)N[C@@H](Cc1ccccc1)C(=O)O [Ang III]
- IC50 (AT4 receptor [1]): 80 nM

Compound: CC[C@H](C)[C@H](NC(=O)[C@H](Cc1ccc(O)cc1)NC(=O)[C@@H](NC(=O)[C@H](CCCNC(=N)N)NC(=O)[C@@H](N)CC(=O)O)C(C)C)C(=O)N[C@@H](Cc1c[nH]cn1)C(=O)N1CCC[C@H]1C(=O)N[C@@H](Cc1ccccc1)C(=O)O [Ang II]
- IC50 (AT4 receptor [1]): 730 nM
- Inhibition of neurite outgrowth [2]: 25%

Compound: CC[C@H](C)[C@H](NC(=O)[C@H](Cc1ccc(O)cc1)NC(=O)[C@@H](N)C(C)C)C(=O)N[C@@H](Cc1cnc[nH]1)C(=O)N1CCC[C@H]1C(=O)N[C@@H](Cc1ccccc1)C(=O)O [Ang IV, NH2-Val Tyr Ile His Pro Phe-COOH]
- Displacement of [125I]LVV-haemorphin-7 and [125I]Ang IV binding (AT4 receptor sites; 1 μM unlabelled ligand, sheep hindbrain sections): displaced
- Concentration of maximal effect on neurite outgrowth [2]: 10^−9 M
- Threshold concentration for inhibition of neurite outgrowth [2]: 10^−11 M
- IC50 ([2]; read-out: Half maximal inhibition of neurite outgrowth): 0.1 nM
- Effect on memory in a passive avoidance task (AT4 receptor [3]): improve memory retention and retrieval

Compound: CC[C@H](C)[C@H](NC(=O)[C@@H]1CCCN1C(=O)[C@H](Cc1c[nH]cn1)NC(=O)[C@H](CCCCNC(=O)[C@H](CCCNC(=N)N)NC(=O)OCc1ccccc1)NC(=O)[C@H](Cc1ccc(O)cc1)NC(=O)c1cccnc1)C(=O)O [CGP 42112] (Nicotinoyl-YK([Arg-Cbz])HPI-OH; N-terminus and C-terminus assumed)
- Concentration at which only 50% of the [125I]Ang IV sites were competed for [4]: 0.5 µM
- Effect on the inhibition of neurite outgrowth by Ang II [2]: ineffective
- Effect on the inhibition of neurite outgrowth by Ang IV [2]: no effect

Compound: CCCC[C@H](N)C(=O)N[C@@H](Cc1ccc(O)cc1)C(=O)N[C@H](C(N)=O)[C@@H](C)CC [Nle^1-Y-I-amide] (H-[Nle]-Tyr-Ile-NH2; N-terminus assumed)
- Effect on the inhibition of neurite outgrowth by Ang IV [2]: totally reversed

Compound: Cc1cc(Cn2cnc3c2C[C@@H](C(=O)O)N(C(=O)C(c2ccccc2)c2ccccc2)C3)ccc1N(C)C [PD 123319]
- Competition for [125I]Ang IV binding (AT4 receptor [1]): inactive
- Inhibition of [125I]Ang IV binding ([4]; at concentrations up to 10 μM): inactive
- IC50 (AT4 receptor [5]; sheep cerebellar cortical membranes): 46000 nM
- Competition for [125I]Ang IV binding (AT4 receptor [6]; at 10 μM): inactive
- Effect on the inhibition of neurite outgrowth by Ang II [2, 10]: ineffective
- Effect on the inhibition of neurite outgrowth by Ang IV [2, 11]: no effect
- Affinity of the Ang IV site for the ligand [7]: low to very low affinity

Compound: CC[C@H](C)[C@H](NC(=O)[C@@H]1CCCN1C(=O)[C@H](Cc1c[nH]cn1)NC(=O)[C@@H](NC(=O)[C@H](Cc1ccc(O)cc1)NC(=O)[C@@H](NC(=O)[C@H](CCCNC(=N)N)NC(=O)CNC)C(C)C)[C@@H](C)CC)C(=O)O [[Sar^1Ile^8]Ang II]
- Concentration at which only 50% of the [125I]Ang IV sites were competed for [4]: 10 µM
- Effect on the inhibition of neurite outgrowth by Ang II [2]: ineffective
- Effect on the inhibition of neurite outgrowth by Ang IV [2]: no effect
- Affinity of the Ang IV site for the ligand [7]: low to very low affinity

Compound: CCCCc1nc(Cl)c(CO)n1Cc1ccc(-c2ccccc2-c2nn[nH]n2)cc1 [losartan]
- Competition for [125I]Ang IV binding (AT4 receptor [1]): inactive
- Effect on the inhibition of neurite outgrowth by Ang II [2, 10]: ineffective
- Effect on the inhibition of neurite outgrowth by Ang IV [2, 11]: no effect
- Affinity of the Ang IV site for the ligand [7]: low to very low affinity

Compound: CN1[C@@H]2C[C@@H](OC(=O)[C@H](CO)c3ccccc3)C[C@H]1[C@@H]1O[C@@H]12 [scopolamine]
- Latency in finding the platform after amnesic agent [8]: significantly increased latencies
- Passive avoidance performance after amnesic agent ([9]; 70 nmol intracerebroventricularly followed by saline): learning and memory deficits

Compound: LVVYPWTQRF [LVV-haemorphin-7]
- IC50 (AT4 receptor [5]): 5.6 nM
- IC50 (AT4 receptor [6]; read-out: IC50 for competing for [125I]Ang IV binding): 2 nM
- Displacement of [125I]LVV-haemorphin-7 and [125I]Ang IV binding (AT4 receptor sites): displaced
- Effect on scopolamine-induced latency in finding the platform [8]: totally reversed
- Effect on scopolamine-induced amnesia (latency to enter dark compartment) ([9]; 70 nmol scopolamine followed by 1.0 nmol peptide, intracerebroventricularly): completely reversed
- Passive avoidance performance, substance alone ([9]; saline followed by 1.0 nmol, intracerebroventricularly): performed worse than the scopolamine-treated rats

Source: US7026280B2, “LV V-Haemorphin-7 neuroactive peptide and methods of use” (Howard Florey Institute of Experimental Physiology, priority 1996, dated 2006)
